Experimental data from patent publication US20250270209A1 (INTERLINE THERAPEUTICS, INC., priority 2022, published 2025).

Legend:
LRRK2 wild type enzyme = LRRK2 wild type enzyme (Homo sapiens, UniProt Q5S007); assay: Biochemical Assay: LRRK2 TR-FRET (LanthaScreen) kinase assay with LRRKtide substrate; details: LRRK2 Inhibition, Table 8
Method in brief: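 Human wild-type LRRK2 (3 nM) preincubated 15 min with compound (11-point, 3-fold, top 10 μM), then reacted 120 min at 23 °C with 400 nM LRRKtide and 25 μM ATP, pH 8.0. Stopped with EDTA; Tb-anti-pLRRKtide TR-FRET read after 30 min.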

[1] = target: T1, wild type LRRK2 overexpressed in recombinant HEK-293T cells (Homo sapiens, UniProt Q5S007); assay: pS935 LRRK2 Cell Assay (HTRF, phospho-LRRK2 Ser935); format: cell-based; details: LRRK2 Inhibition, Table 8, 2 hours compound incubation
T1 construct: host or cells: HEK293T (transient transfection with pCMV-LRRK2 WT plasmid)
Method in brief: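 HEK-293T cells transiently transfected with wild-type LRRK2 for 24 h, plated overnight, then treated 2 h at 37° C with compound (top 10 μM, 3-fold, 9 doses, duplicates, 0.2% DMSO). Lysates probed overnight at 23° C by sandwich HTRF for pSer935; 665/615 nm ratio read.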

Sequence of LRRK2 wild type enzyme (Q5S007 whole entry): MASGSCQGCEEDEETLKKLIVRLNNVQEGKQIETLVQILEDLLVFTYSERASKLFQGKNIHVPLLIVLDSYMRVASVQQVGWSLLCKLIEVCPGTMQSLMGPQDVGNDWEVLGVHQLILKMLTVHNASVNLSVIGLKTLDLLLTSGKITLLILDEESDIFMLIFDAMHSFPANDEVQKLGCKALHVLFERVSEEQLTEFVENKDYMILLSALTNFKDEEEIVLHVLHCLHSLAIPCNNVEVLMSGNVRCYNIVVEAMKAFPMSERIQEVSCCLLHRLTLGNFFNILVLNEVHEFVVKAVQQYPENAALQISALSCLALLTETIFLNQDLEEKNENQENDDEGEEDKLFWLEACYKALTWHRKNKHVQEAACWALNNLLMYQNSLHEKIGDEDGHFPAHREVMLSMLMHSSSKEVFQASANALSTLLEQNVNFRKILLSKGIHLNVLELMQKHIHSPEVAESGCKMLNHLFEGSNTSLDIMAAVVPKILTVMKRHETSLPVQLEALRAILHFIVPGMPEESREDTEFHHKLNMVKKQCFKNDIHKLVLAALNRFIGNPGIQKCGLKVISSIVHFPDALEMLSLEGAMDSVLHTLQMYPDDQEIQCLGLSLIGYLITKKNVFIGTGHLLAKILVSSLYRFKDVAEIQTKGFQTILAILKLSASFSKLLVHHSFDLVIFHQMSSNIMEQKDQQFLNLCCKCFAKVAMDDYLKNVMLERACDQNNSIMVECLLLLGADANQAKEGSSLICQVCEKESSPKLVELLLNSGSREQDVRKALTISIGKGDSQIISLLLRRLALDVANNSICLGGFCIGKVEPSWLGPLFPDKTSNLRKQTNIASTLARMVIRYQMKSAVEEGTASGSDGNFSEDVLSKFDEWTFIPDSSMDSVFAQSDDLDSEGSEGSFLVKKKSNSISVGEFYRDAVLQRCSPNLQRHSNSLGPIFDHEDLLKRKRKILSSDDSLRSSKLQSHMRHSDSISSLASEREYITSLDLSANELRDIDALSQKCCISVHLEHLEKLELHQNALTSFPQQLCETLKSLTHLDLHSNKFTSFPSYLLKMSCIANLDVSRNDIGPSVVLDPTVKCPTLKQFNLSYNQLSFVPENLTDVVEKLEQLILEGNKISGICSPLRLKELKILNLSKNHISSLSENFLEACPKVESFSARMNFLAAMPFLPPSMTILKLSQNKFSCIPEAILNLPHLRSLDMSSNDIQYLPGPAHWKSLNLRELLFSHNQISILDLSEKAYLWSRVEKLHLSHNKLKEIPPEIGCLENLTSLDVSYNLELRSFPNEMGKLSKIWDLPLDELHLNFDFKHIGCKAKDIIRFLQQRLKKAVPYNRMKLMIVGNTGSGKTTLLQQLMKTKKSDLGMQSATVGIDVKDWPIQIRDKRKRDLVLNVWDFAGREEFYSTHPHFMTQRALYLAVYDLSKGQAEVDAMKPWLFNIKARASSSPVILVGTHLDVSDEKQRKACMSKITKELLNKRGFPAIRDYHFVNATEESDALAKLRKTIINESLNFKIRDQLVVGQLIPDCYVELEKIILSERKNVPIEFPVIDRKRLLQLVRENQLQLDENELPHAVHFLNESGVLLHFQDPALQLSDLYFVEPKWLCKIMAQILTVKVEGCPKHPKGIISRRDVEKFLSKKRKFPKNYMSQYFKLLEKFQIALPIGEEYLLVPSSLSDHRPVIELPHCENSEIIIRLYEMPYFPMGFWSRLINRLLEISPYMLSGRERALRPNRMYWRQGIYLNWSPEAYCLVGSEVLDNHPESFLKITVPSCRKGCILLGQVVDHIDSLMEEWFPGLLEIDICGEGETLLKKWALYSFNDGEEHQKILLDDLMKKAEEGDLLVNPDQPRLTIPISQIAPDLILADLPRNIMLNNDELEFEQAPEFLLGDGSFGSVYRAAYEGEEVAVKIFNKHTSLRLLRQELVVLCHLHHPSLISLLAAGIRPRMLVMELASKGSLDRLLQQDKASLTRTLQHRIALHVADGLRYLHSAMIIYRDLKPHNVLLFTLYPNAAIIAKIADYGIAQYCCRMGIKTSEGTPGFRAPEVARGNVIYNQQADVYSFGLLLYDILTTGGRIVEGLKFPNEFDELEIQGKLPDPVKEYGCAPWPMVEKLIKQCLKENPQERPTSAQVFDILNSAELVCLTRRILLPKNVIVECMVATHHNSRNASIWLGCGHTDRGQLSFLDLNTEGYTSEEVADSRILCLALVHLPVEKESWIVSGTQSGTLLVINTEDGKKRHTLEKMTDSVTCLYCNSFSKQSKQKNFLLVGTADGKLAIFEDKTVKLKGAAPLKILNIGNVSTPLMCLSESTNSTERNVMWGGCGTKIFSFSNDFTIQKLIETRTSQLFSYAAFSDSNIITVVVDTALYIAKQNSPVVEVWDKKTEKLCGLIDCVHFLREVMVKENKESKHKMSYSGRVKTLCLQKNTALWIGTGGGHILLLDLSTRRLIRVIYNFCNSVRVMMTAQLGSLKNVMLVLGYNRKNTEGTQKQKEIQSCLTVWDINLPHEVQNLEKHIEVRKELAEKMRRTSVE
T1 sequence (Q5S007 whole entry): as above

Structure (SMILES)	IC50 (LRRK2 wild type enzyme) [nM]	IC50 [1] [nM]
C[C@@H]1C[C@H](n2c(CC(=O)Nc3ccn(C4COC4)n3)nc3cnc4ccc(C#N)cc4c32)CCO1 [Compound 346, N-[1-(3-oxetanyl)-3-pyrazolyl]{2-[(2R,4R)-2-methyltetrahydro-2H-pyran-4-yl]-12-cyano-3,5,8-triazatricyclo[7.4.0.0^2,6]trideca-1(9),2(6),4,7,10,12-hexaen-4-yl}acetamide]	0.555	28.5
C[C@@H]1C[C@H](n2c(CC3CN(S(C)(=O)=O)C3)nc3cnc4ccc(C#N)cc4c32)CCO1 [Compound 65, 2-[(1-methanesulfonylazetidin-3-yl)methyl]-1-[(2R,4R)-2-methyloxan-4-yl]-1H-imidazo[4,5-c]quinoline-8-carbonitrile]	5.03	525
CN1CC(n2c(C3CC(=O)N(CC4CC4)C3)nc3cnc4ccc(C#N)cc4c32)CCC1=O (single isomer, unassigned) [Compound 139]	56	1600
C[C@@H]1C[C@H](n2c(C3CCN(S(C)(=O)=O)CC3)nc3cnc4ccc(C#N)cc4c32)CCO1 [Compound 122, 2-(1-methanesulfonylpiperidin-4-yl)-1-[(2R,4R)-2-methyloxan-4-yl]-1H-imidazo[4,5-c]quinoline-8-carbonitrile]	2.99	546
C[C@@H]1C[C@H](n2c(CC(=O)Nc3cnc(C4CC4)nc3)nc3cnc4ccc(C#N)cc4c32)CCO1 [Compound 300, N-(2-cyclopropyl-5-pyrimidinyl){3-[(2R,4R)-2-methyltetrahydro-2H-pyran-4-yl]-12-cyano-3,5,8-triazatricyclo[7.4.0.0^2,6]trideca-1,4,6,8,10,12-hexaen-4-yl}acetamide]	0.382	10.6
C[C@@H]1C[C@H](n2c(CC(=O)Nc3ccn(C)c(=O)c3)nc3cnc4ccc(Cl)cc4c32)CCO1 [Compound 212, N-(1-methyl-2-oxo-1,2-dihydro-4-pyridyl){3-[(2R,4R)-2-methyltetrahydro-2H-pyran-4-yl]-12-chloro-3,5,8-triazatricyclo[7.4.0.0^2,6]trideca-1,4,6,8,10,12-hexaen-4-yl}acetamide]	0.331	11.5
Cc1cccc(CNC(=O)Cc2nc3cnc4ccc(C#N)cc4c3n2[C@@H]2CCO[C@H](C)C2)n1 [Compound 152, 2-{8-cyano-1-[(2R,4R)-2-methyloxan-4-yl]-1H-imidazo[4,5-c]quinolin-2-yl}-N-[(6-methylpyridin-2-yl)methyl]acetamide]	0.318	3.4
C[C@@H]1C[C@H](n2c(CC(=O)Nc3ncccn3)nc3cnc4ccc(Cl)cc4c32)CCO1 [Compound 353, N-2-pyrimidinyl{3-[(2R,4R)-2-methyltetrahydro-2H-pyran-4-yl]-12-chloro-3,5,8-triazatricyclo[7.4.0.0^2,6]trideca-1(9),2(6),4,7,10,12-hexaen-4-yl}acetamide]	0.395	1.84
Cc1ccc2ncc3nc(CC(=O)NC4CC4)n([C@@H]4CCO[C@H](C)C4)c3c2c1 [Compound 191, N-cyclopropyl-2-{8-methyl-1-[(2R,4R)-2-methyloxan-4-yl]-1H-imidazo[4,5-c]quinolin-2-yl}acetamide]	0.961	65.6
C[C@@H]1C[C@H](n2c(CC(=O)Nc3cccnc3)nc3cnc4ccc(Cl)cc4c32)CCO1 [Compound 325, N-3-pyridyl{3-[(2R,4R)-2-methyltetrahydro-2H-pyran-4-yl]-12-chloro-3,5,8-triazatricyclo[7.4.0.0^2,6]trideca-1(9),2(6),4,7,10,12-hexaen-4-yl}acetamide]	0.44	2.54
N#Cc1ccc2ncc3nc(CC(=O)NCC4CC4)n(C4CCOCC4)c3c2c1 [Compound 343, N-cyclopropylmethyl{12-cyano-3-(tetrahydro-2H-pyran-4-yl)-3,5,8-triazatricyclo[7.4.0.0^2,6]trideca-1,4,6,8,10,12-hexaen-4-yl}acetamide]	2.81	135
C[C@@H]1C[C@H](n2c(CC(=O)Nc3cnoc3)nc3cnc4ccc(Cl)cc4c32)CCO1 [Compound 313]	0.722	7.09
COc1nc(C2CC2)ncc1NC(=O)Cc1nc2cnc3ccc(C#N)cc3c2n1[C@@H]1CCO[C@H](C)C1 [Compound 255, N-(2-cyclopropyl-4-methoxy-5-pyrimidinyl){3-[(2R,4R)-2-methyltetrahydro-2H-pyran-4-yl]-12-cyano-3,5,8-triazatricyclo[7.4.0.0^2,6]trideca-1,4,6,8,10,12-hexaen-4-yl}acetamide]	0.433	3.92
C[C@@H]1C[C@H](n2c(CC(=O)N[C@@H](C)C3CC3)nc3cnc4ccc(C#N)cc4c32)CCO1 [Compound 8, 2-{8-cyano-1-[(2R,4R)-2-methyloxan-4-yl]-1H-imidazo[4,5-c]quinolin-2-yl}-N-[(1S)-1-cyclopropylethyl]acetamide]	1.49	118
C[C@@H]1C[C@H](n2c(C3CCC(=O)N(CC4CC4)C3)nc3cnc4ccc(C#N)cc4c32)CCO1 (stereo partly drawn) [Compound 50, 2-[1-(cyclopropylmethyl)-6-oxopiperidin-3-yl]-1-[(2R,4R)-2-methyloxan-4-yl]-1H-imidazo[4,5-c]quinoline-8-carbonitrile]	7.5	875
COc1c(NC(=O)Cc2nc3cnc4ccc(C#N)cc4c3n2[C@@H]2CCO[C@H](C)C2)cnn1C [Compound 224, N-(5-methoxy-1-methyl-4-pyrazolyl){3-[(2R,4R)-2-methyltetrahydro-2H-pyran-4-yl]-12-cyano-3,5,8-triazatricyclo[7.4.0.0^2,6]trideca-1,4,6,8,10,12-hexaen-4-yl}acetamide]	1.42	87.9
C[C@@H]1C[C@H](n2c(CC(=O)NCC3CCO3)nc3cnc4ccc(C#N)cc4c32)CCO1 (stereo partly drawn) [Compound 149, 2-{8-cyano-1-[(2R,4R)-2-methyloxan-4-yl]-1H-imidazo[4,5-c]quinolin-2-yl}-N-[(oxetan-2-yl)methyl]acetamide]	0.715	74.3
COc1ccc2ncc3nc(CC(=O)NC4CC4)n([C@@H]4CCO[C@H](C)C4)c3c2c1 [Compound 160, N-cyclopropyl-2-{8-methoxy-1-[(2R,4R)-2-methyloxan-4-yl]-1H-imidazo[4,5-c]quinolin-2-yl}acetamide]	2.82	332
C[C@@H]1C[C@H](n2c(CC(=O)Nc3ncccn3)nc3cnc4ccc(C#N)cc4c32)CCO1 [Compound 178, 2-{8-cyano-1-[(2R,4R)-2-methyloxan-4-yl]-1H-imidazo[4,5-c]quinolin-2-yl}-N-(pyrimidin-2-yl)acetamide]	0.34	3.92
COc1nnccc1NC(=O)Cc1nc2cnc3ccc(C#N)cc3c2n1[C@@H]1CCO[C@H](C)C1 [Compound 222, N-(3-methoxy-4-pyridazinyl){3-[(2R,4R)-2-methyltetrahydro-2H-pyran-4-yl]-12-cyano-3,5,8-triazatricyclo[7.4.0.0^2,6]trideca-1,4,6,8,10,12-hexaen-4-yl}acetamide]	0.263	2.9
C[C@@H]1C[C@H](n2c(CC(=O)Nc3cccn(C)c3=O)nc3cnc4ccc(C#N)cc4c32)CCO1 [Compound 263, N-(1-methyl-2-oxo-1,2-dihydro-3-pyridyl){3-[(2R,4R)-2-methyltetrahydro-2H-pyran-4-yl]-12-cyano-3,5,8-triazatricyclo[7.4.0.0^2,6]trideca-1,4,6,8,10,12-hexaen-4-yl}acetamide]	0.476	8.93
C[C@@H]1C[C@H](n2c(CC(=O)Nc3ccccc3)nc3cnc4ccc(C#N)cc4c32)CCO1 [Compound 330, N-phenyl{3-[(2R,4R)-2-methyltetrahydro-2H-pyran-4-yl]-12-cyano-3,5,8-triazatricyclo[7.4.0.0^2,6]trideca-1(9),2(6),4,7,10,12-hexaen-4-yl}acetamide]	0.507	4.68
C[C@@H]1C[C@H](n2c(CC(=O)Nc3ccc(Cl)nc3)nc3cnc4ccc(C#N)cc4c32)CCO1 [Compound 297, N-(6-chloro-3-pyridyl){3-[(2R,4R)-2-methyltetrahydro-2H-pyran-4-yl]-12-cyano-3,5,8-triazatricyclo[7.4.0.0^2,6]trideca-1,4,6,8,10,12-hexaen-4-yl}acetamide]	0.225	3.99
Cc1cnn(C)c1NC(=O)Cc1nc2cnc3ccc(C#N)cc3c2n1[C@@H]1CCO[C@H](C)C1 [Compound 350, N-(1-methyl-4-methyl-5-pyrazolyl){3-[(2R,4R)-2-methyltetrahydro-2H-pyran-4-yl]-12-cyano-3,5,8-triazatricyclo[7.4.0.0^2,6]trideca-1(9),2(6),4,7,10,12-hexaen-4-yl}acetamide]	0.487	15.4
COc1ncc(NC(=O)Cc2nc3cnc4ccc(C#N)cc4c3n2[C@@H]2CCO[C@H](C)C2)c(C2CC2)n1 [Compound 278, N-(4-cyclopropyl-2-methoxy-5-pyrimidinyl){3-[(2R,4R)-2-methyltetrahydro-2H-pyran-4-yl]-12-cyano-3,5,8-triazatricyclo[7.4.0.0^2,6]trideca-1,4,6,8,10,12-hexaen-4-yl}acetamide]	0.418	2
C[C@@H]1C[C@H](n2c(C3CCN(CC4CC4)C(=O)C3)nc3cnc4ccc(C#N)cc4c32)CCO1 (stereo partly drawn) [Compound 49, 2-[1-(cyclopropylmethyl)-2-oxopiperidin-4-yl]-1-[(2R,4R)-2-methyloxan-4-yl]-1H-imidazo[4,5-c]quinoline-8-carbonitrile]	15.3	871
